Reference: the supplement of paper PMC7840683
Structures can show the parent of a compound that is named as a salt.

Test system: HepaRG
Assay: LDH release cytotoxicity, % of total lysis control; higher = more cytotoxic
Conditions: 48 h
How it was run: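 On collagen I-coated 96-well plates, single-lot HepaRG cells were exposed for 48 h, in duplicate, to eight-point half-log series of test chemicals beginning at 100 µM. The exposure medium was serum-free induction medium with 0.5% DMSO, and total lysis wells got 0.1% Triton X. Resorufin fluorescence from the CytoTox-ONE reaction, read on a Tecan Safire, reported LDH in 50 µL of spent medium. Percent cytotoxicity came from normalization to on-plate vehicle and total lysis controls, averaged over the duplicates.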

Clc1ccc(C(c2ccc(Cl)cc2)C(Cl)(Cl)Cl)cc1 [Dichlorodiphenyltrichloroethane]
Conditions	LDH release cytotoxicity [%]
0.03162 µM	0.0415
0.1 µM	0.0911
0.3162278 µM	0.015
1 µM	0.105
3.16228 µM	0.853
10 µM	0.81
31.6228 µM	0.658
100 µM	1.05

CC(Oc1ccc(Cl)cc1Cl)C(=O)O (stereo unspecified) [Dichlorprop]
Conditions	LDH release cytotoxicity [%]
0.03162 µM	-0.461
0.1 µM	-0.49
0.3162278 µM	-0.517
1 µM	0.354
3.16228 µM	0.35
10 µM	0.358
31.6228 µM	0.57
100 µM	1.75

COP(=O)(OC)OC=C(Cl)Cl [Dichlorvos]
Conditions	LDH release cytotoxicity [%]
0.03162 µM	-0.581
0.1 µM	-0.968
0.3162278 µM	-1.1
1 µM	-0.845
3.16228 µM	-0.267
10 µM	-0.149
31.6228 µM	-0.147
100 µM	2.09

O=C(O)Cc1ccccc1Nc1c(Cl)cccc1Cl [Diclofenac sodium]
Conditions	LDH release cytotoxicity [%]
0.03162 µM	0.371
0.1 µM	-0.605
0.3162278 µM	-1.36
1 µM	-0.678
3.16228 µM	-0.378
10 µM	-0.578
31.6228 µM	1.19
100 µM	12

Nc1c(Cl)cc([N+](=O)[O-])cc1Cl [Dicloran]
Conditions	LDH release cytotoxicity [%]
0.03162 µM	-0.748
0.1 µM	-1.57
0.3162278 µM	-1.57
1 µM	-2.63
3.16228 µM	-1.28
10 µM	-1.61
31.6228 µM	-0.997
100 µM	0.0971

CCOc1nc(F)cc2nc(S(=O)(=O)Nc3c(Cl)cccc3Cl)nn12 [Diclosulam]
Conditions	LDH release cytotoxicity [%]
0.01581 µM	-5.4
0.05 µM	-5.8
0.1581139 µM	-6.31
0.5 µM	-6.08
1.5811388 µM	-6.09
5 µM	-5.21
15.8114 µM	-4.75
50 µM	-3.63

OC(c1ccc(Cl)cc1)(c1ccc(Cl)cc1)C(Cl)(Cl)Cl [Dicofol]
Conditions	LDH release cytotoxicity [%]
0.03162 µM	-4.47
0.1 µM	-4.19
0.3162278 µM	-3.36
1 µM	-3.88
3.16228 µM	-3.71
10 µM	-3.02
31.6228 µM	-3.41
100 µM	-0.0654

COP(=O)(OC)OC(C)=CC(=O)N(C)C [Dicrotophos]
Conditions	LDH release cytotoxicity [%]
0.03162 µM	-2.01
0.1 µM	-1.23
0.3162278 µM	-1.47
1 µM	-2.46
3.16228 µM	-1.22
10 µM	-0.345
31.6228 µM	1.7
100 µM	-0.538

CC(C)(OOC(C)(C)c1ccccc1)c1ccccc1 [Dicumyl peroxide]
Conditions	LDH release cytotoxicity [%]
0.03162 µM	-3.28
0.1 µM	-3.3
0.3162278 µM	-1.36
1 µM	-1.54
3.16228 µM	-0.973
10 µM	-1.43
31.6228 µM	-0.756
100 µM	-0.201

C1CCC(SSC2CCCCC2)CC1 [Dicyclohexyl disulfide]
Conditions	LDH release cytotoxicity [%]
0.03162 µM	-0.985
0.1 µM	-0.62
0.3162278 µM	-0.405
1 µM	-1.38
3.16228 µM	-2
10 µM	-0.29
31.6228 µM	2.64
100 µM	68.4

CCCCCCCCCC[N+](C)(C)CCCCCCCCCC [Didecyldimethylammonium chloride]
Conditions	LDH release cytotoxicity [%]
0.0317809 µM	-1.08
0.1005 µM	-0.913
0.317809 µM	-0.501
1.005 µM	-2.08
3.17809 µM	-0.414
10.05 µM	0.276
31.7809 µM	0.202
100.5 µM	1.33

ClC1=C(Cl)C2(Cl)C3C4CC(C5OC45)C3C1(Cl)C2(Cl)Cl (stereo unspecified) [Dieldrin]
Conditions	LDH release cytotoxicity [%]
0.03162 µM	-0.556
0.1 µM	-1.67
0.3162278 µM	-1.33
1 µM	-1.987
3.16228 µM	-2.14
10 µM	-0.0152
31.6228 µM	-0.473
100 µM	2.21

OCCNCCO [Diethanolamine]
Conditions	LDH release cytotoxicity [%]
0.031623 µM	-1.15
0.1 µM	-1.45
0.316228 µM	-1.83
1 µM	-2.4
3.16228 µM	-2.41
10 µM	-1.71
31.6228 µM	-0.726
100 µM	0.309

CCOC(=O)CCC(=O)OCC [Diethyl butanedioate]
Conditions	LDH release cytotoxicity [%]
0.03162 µM	-2.6
0.1 µM	-1.75
0.3162278 µM	-2.02
1 µM	-1.99
3.16228 µM	-0.438
10 µM	-0.384
31.6228 µM	16
100 µM	83.2

CCOC(=O)c1ccccc1C(=O)OCC [Diethyl phthalate]
Conditions	LDH release cytotoxicity [%]
0.03162 µM	-0.196
0.1 µM	-0.436
0.3162278 µM	-0.318
1 µM	-1.12
3.16228 µM	-0.475
10 µM	-1.03
31.6228 µM	-0.196
100 µM	5.77

CCOS(=O)(=O)OCC [Diethyl sulfate]
Conditions	LDH release cytotoxicity [%]
0.03162 µM	-1.93
0.1 µM	-1.47
0.3162278 µM	-1.68
1 µM	-2.05
3.16228 µM	-1.61
10 µM	-1.77
31.6228 µM	-1.5
100 µM	0.71

O=C(OCCOCCOC(=O)c1ccccc1)c1ccccc1 [Diethylene glycol dibenzoate]
Conditions	LDH release cytotoxicity [%]
0.03162 µM	-0.909
0.1 µM	-1.337
0.3162278 µM	-0.774
1 µM	-1.03
3.16228 µM	-1.1
10 µM	-0.826
31.6228 µM	-1.09
100 µM	0.38

COCCOCCOC [Diethylene glycol dimethyl ether]
Conditions	LDH release cytotoxicity [%]
0.03162 µM	-0.901
0.1 µM	-2.67
0.3162278 µM	-2.41
1 µM	-2.68
3.16228 µM	-1.55
10 µM	-0.488
31.6228 µM	-0.826
100 µM	0.75

COCCOCCO [Diethylene glycol monomethyl ether]
Conditions	LDH release cytotoxicity [%]
0.03162 µM	-0.428
0.1 µM	-2.12
0.3162278 µM	-0.798
1 µM	-1.35
3.16228 µM	-0.999
10 µM	-1.13
31.6228 µM	0.0217
100 µM	1.02

OCCOCCO [Diethylene glycol]
Conditions	LDH release cytotoxicity [%]
0.03162 µM	-0.757
0.1 µM	-1.02
0.3162278 µM	-1.03
1 µM	-0.601
3.16228 µM	-1.16
10 µM	-0.563
31.6228 µM	-0.731
100 µM	0.422

CCC(=C(CC)c1ccc(O)cc1)c1ccc(O)cc1 [Diethylstilbestrol]
Conditions	LDH release cytotoxicity [%]
0.031623 µM	-1.08
0.1 µM	-0.295
0.316228 µM	-1.31
1 µM	-2.18
3.16228 µM	-2.64
10 µM	-2.24
31.6228 µM	-0.817
100 µM	0.74

CC1COC(Cn2cncn2)(c2ccc(Oc3ccc(Cl)cc3)cc2Cl)O1 (stereo unspecified) [Difenoconazole]
Conditions	LDH release cytotoxicity [%]
0.03162 µM	-1.39
0.1 µM	-1.4
0.3162278 µM	-1.37
1 µM	-1.47
3.16228 µM	-0.57
10 µM	-0.701
31.6228 µM	-1.41
100 µM	-0.14

Cn1c(-c2ccccc2)cc(-c2ccccc2)[n+]1C [Difenzoquat metilsulfate]
Conditions	LDH release cytotoxicity [%]
0.03162 µM	-4.98
0.1 µM	-4.55
0.3162278 µM	-3.76
1 µM	-4.22
3.16228 µM	-3.44
10 µM	-3.6
31.6228 µM	-2.99
100 µM	-1.18

COc1ccc(-n2nc(C(F)F)cc2-c2ccc(S(C)=O)cc2)cc1 (stereo unspecified) [Difpas-pyrazole]
Conditions	LDH release cytotoxicity [%]
0.03162 µM	-0.159
0.1 µM	-0.696
0.3162278 µM	-0.216
1 µM	-0.962
3.16228 µM	0.006
10 µM	0.216
31.6228 µM	0.847
100 µM	78.66

CCCCCCOC(=O)c1ccccc1C(=O)OCCCCCC [Dihexyl phthalate]
Conditions	LDH release cytotoxicity [%]
0.03162 µM	-0.113
0.1 µM	-2.29
0.3162278 µM	-1.07
1 µM	-1.78
3.16228 µM	-2.06
10 µM	4.57
31.6228 µM	25.3
100 µM	81

CC(C)COC(=O)CCCCC(=O)OCC(C)C [Diisobutyl adipate]
Conditions	LDH release cytotoxicity [%]
0.03162 µM	-1.813
0.1 µM	-2.01
0.3162278 µM	-0.902
1 µM	-2.26
3.16228 µM	-2.38
10 µM	-0.129
31.6228 µM	7.28
100 µM	46.4

CC(C)COC(=O)c1ccccc1C(=O)OCC(C)C [Diisobutyl phthalate]
Conditions	LDH release cytotoxicity [%]
0.03162 µM	-2.33
0.1 µM	-2.4
0.3162278 µM	-2.25
1 µM	-2.06
3.16228 µM	-2.34
10 µM	-1.43
31.6228 µM	-2.53
100 µM	-1.03

CC(C)CCCCCCCOC(=O)CCCCC(=O)OCCCCCCCC(C)C [Diisodecyl hexanedioate]
Conditions	LDH release cytotoxicity [%]
0.03162 µM	-0.938
0.1 µM	-1.86
0.3162278 µM	-1.91
1 µM	-1.58
3.16228 µM	-1.63
10 µM	-1.13
31.6228 µM	-0.135
100 µM	0.966

CC(C)CCCCCCOC(=O)C1CCCCC1C(=O)OCCCCCCC(C)C (stereo unspecified) [Diisononyl cyclohexane-1,2-dicarboxylate]
Conditions	LDH release cytotoxicity [%]
0.03162 µM	-0.786
0.1 µM	-0.599
0.3162278 µM	-1.09
1 µM	-0.000557
3.16228 µM	-0.402
10 µM	0.246
31.6228 µM	-0.258
100 µM	1.07

COCC(C)N(C(=O)CCl)c1c(C)csc1C (stereo unspecified) [Dimethenamid]
Conditions	LDH release cytotoxicity [%]
0.031623 µM	-1.73
0.1 µM	-3.31
0.316228 µM	-2.49
1 µM	-2.95
3.16228 µM	-2.64
10 µM	-3.81
31.6228 µM	-2.28
100 µM	0.11

CC1=C(C)S(=O)(=O)CCS1(=O)=O [Dimethipin]
Conditions	LDH release cytotoxicity [%]
0.03162 µM	-2.35
0.1 µM	-2.52
0.3162278 µM	-2.59
1 µM	-3.12
3.16228 µM	-2.6
10 µM	-2.6
31.6228 µM	-2.51
100 µM	-1.52

CNC(=O)CSP(=S)(OC)OC [Dimethoate]
Conditions	LDH release cytotoxicity [%]
0.03162 µM	0.0142
0.1 µM	0.0233
0.3162278 µM	-0.779
1 µM	-1.24
3.16228 µM	-0.679
10 µM	-0.364
31.6228 µM	0.327
100 µM	0.574

COc1ccc(C(=CC(=O)N2CCOCC2)c2ccc(Cl)cc2)cc1OC [Dimethomorph]
Conditions	LDH release cytotoxicity [%]
0.03162 µM	-0.689
0.1 µM	-1.52
0.3162278 µM	-1.7
1 µM	-1.1
3.16228 µM	-0.768
10 µM	-0.565
31.6228 µM	-0.618
100 µM	1.09

CC(=O)OC1CC(C)OC(C)O1 (stereo unspecified) [Dimethoxane]
Conditions	LDH release cytotoxicity [%]
0.03162 µM	-0.261
0.1 µM	-0.746
0.3162278 µM	-1.64
1 µM	-1.54
3.16228 µM	-1.77
10 µM	-1.72
31.6228 µM	-1.51
100 µM	4.58

COC(=O)CCCCC(=O)OC [Dimethyl adipate]
Conditions	LDH release cytotoxicity [%]
0.03162 µM	0.892
0.1 µM	-1.11
0.3162278 µM	-1.36
1 µM	-1.52
3.16228 µM	-1.398
10 µM	-1.08
31.6228 µM	-0.702
100 µM	0.485

COC(=O)CCCC(=O)OC [Dimethyl glutarate]
Conditions	LDH release cytotoxicity [%]
0.03162 µM	-0.9
0.1 µM	-1.35
0.3162278 µM	-1.16
1 µM	-1.42
3.16228 µM	-1.03
10 µM	-1.13
31.6228 µM	-1.36
100 µM	3.2

COC(=O)CC(=O)OC [Dimethyl malonate]
Conditions	LDH release cytotoxicity [%]
0.03162 µM	-0.603
0.1 µM	-0.89
0.3162278 µM	-0.395
1 µM	-0.704
3.16228 µM	-0.831
10 µM	-0.0631
31.6228 µM	0.8
100 µM	1.4
